According to patent publication US6358885B1, “Substituted phenylheterocyclic herbicides” (Mississippi State University, priority 1992, dated 2002):

Key:
Test in all cases: Test B preemergence/postemergence greenhouse plant response rating 0 to 10
Conditions in all cases: 0 to 10 scale
cheatgrass = format: in vivo, Bromus secalinus
Outline: (§1)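 Planted seeds are treated preemergence with compound dissolved in a non-phytotoxic solvent, while postemergence applications go onto plants of two to eighteen cm. Plants stay in the greenhouse twelve to sixteen days and are then rated visually relative to controls.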

corn = format: in vivo, Zea mays
Outline: as §1

purple nutsedge = format: in vivo, Cyperus rotundus
Outline: as §1

sugar beet = format: in vivo, Beta vulgaris
Outline: as §1

rice = format: in vivo, Oryza sativa
Outline: as §1

soybean = format: in vivo, Glycine max
Outline: as §1

crabgrass = format: in vivo, Digitaria spp.
Outline: as §1

blackgrass = format: in vivo, Alopecurus myosuroides
Outline: as §1

rape = format: in vivo, Brassica napus
Outline: as §1

giant foxtail = format: in vivo, Setaria faberii
Outline: as §1

chickweed = format: in vivo, Stellaria media
Outline: as §1

barley = format: in vivo, Hordeum vulgare
Outline: as §1

morningglory = format: in vivo, Ipomoea hederacea
Outline: as §1

lambsquarters = format: in vivo, Chenopodium album
Outline: as §1

sorghum = format: in vivo, Sorghum bicolor
Outline: as §1

wheat = format: in vivo, Triticum aestivum
Outline: as §1

barnyardgrass = format: in vivo, Echinochloa crus-galli
Outline: as §1

bedstraw = format: in vivo, Galium aparine
Outline: as §1

wild buckwheat = format: in vivo, Polygonum convolvulus
Outline: as §1

cotton = format: in vivo, Gossypium hirsutum
Outline: as §1

velvetleaf = format: in vivo, Abutilon theophrasti
Outline: as §1

cocklebur = format: in vivo, Xanthium pensylvanicum
Outline: as §1

wild oat = format: in vivo, Avena fatua
Outline: as §1

C#CCOC(=O)COc1cc(-c2nn3c(c2Cl)CCCC3)c(F)cc1Cl [Compound 61]
5: Plant response rating, Corn (corn; POSTEMERGENCE, Rate 50 g/ha) | Plant response rating, Bedstraw (bedstraw; POSTEMERGENCE, Rate 10 g/ha) | Plant response rating, Bedstraw (bedstraw; PREEMERGENCE, Rate 50 g/ha)
9: Plant response rating, Lambsquarter (lambsquarters; POSTEMERGENCE, Rate 10 g/ha) | Plant response rating, Lambsquarter (lambsquarters; POSTEMERGENCE, Rate 50 g/ha) | Plant response rating, Lambsquarter (lambsquarters; PREEMERGENCE, Rate 50 g/ha) | Plant response rating, Bedstraw (bedstraw; POSTEMERGENCE, Rate 50 g/ha) | Plant response rating, Wild buckwheat (wild buckwheat; POSTEMERGENCE, Rate 50 g/ha) | Plant response rating, Cotton (cotton; POSTEMERGENCE, Rate 10 g/ha)
1: Plant response rating, Rape (rape; POSTEMERGENCE, Rate 10 g/ha) | Plant response rating, Barley (barley; POSTEMERGENCE, Rate 10 g/ha) | Plant response rating, Wild oat (wild oat; POSTEMERGENCE, Rate 10 g/ha)
4: Plant response rating, Rice (rice; POSTEMERGENCE, Rate 50 g/ha) | Plant response rating, Rape (rape; PREEMERGENCE, Rate 50 g/ha) | Plant response rating, Cocklebur (cocklebur; POSTEMERGENCE, Rate 10 g/ha)
8: Plant response rating, Rape (rape; POSTEMERGENCE, Rate 50 g/ha) | Plant response rating, Cocklebur (cocklebur; POSTEMERGENCE, Rate 50 g/ha)
2: Plant response rating, Cheatgrass (cheatgrass; POSTEMERGENCE, Rate 10 g/ha) | Plant response rating, Cheatgrass (cheatgrass; PREEMERGENCE, Rate 50 g/ha) | Plant response rating, Nutsedge (purple nutsedge; POSTEMERGENCE, Rate 50 g/ha) | Plant response rating, Rice (rice; POSTEMERGENCE, Rate 10 g/ha) | Plant response rating, Soybean (soybean; POSTEMERGENCE, Rate 10 g/ha) | Plant response rating, Crabgrass (crabgrass; POSTEMERGENCE, Rate 10 g/ha) | Plant response rating, Crabgrass (crabgrass; POSTEMERGENCE, Rate 50 g/ha) | Plant response rating, Blackgrass (blackgrass; POSTEMERGENCE, Rate 10 g/ha) | Plant response rating, Blackgrass (blackgrass; PREEMERGENCE, Rate 50 g/ha) | Plant response rating, Giant foxtail (giant foxtail; POSTEMERGENCE, Rate 10 g/ha) | Plant response rating, Giant foxtail (giant foxtail; POSTEMERGENCE, Rate 50 g/ha) | Plant response rating, Chickweed (chickweed; POSTEMERGENCE, Rate 10 g/ha) | Plant response rating, Chickweed (chickweed; POSTEMERGENCE, Rate 50 g/ha) | Plant response rating, Barley (barley; POSTEMERGENCE, Rate 50 g/ha) | Plant response rating, Sorghum (sorghum; POSTEMERGENCE, Rate 10 g/ha) | Plant response rating, Wheat (wheat; POSTEMERGENCE, Rate 10 g/ha) | Plant response rating, Barnyardgrass (barnyardgrass; POSTEMERGENCE, Rate 10 g/ha) | Plant response rating, Barnyardgrass (barnyardgrass; POSTEMERGENCE, Rate 50 g/ha) | Plant response rating, Velvetleaf (velvetleaf; POSTEMERGENCE, Rate 10 g/ha) | Plant response rating, Wild oat (wild oat; POSTEMERGENCE, Rate 50 g/ha) | Plant response rating, Wild oat (wild oat; PREEMERGENCE, Rate 50 g/ha)
10: Plant response rating, Nutsedge (purple nutsedge; PREEMERGENCE, Rate 50 g/ha) | Plant response rating, Sugar beet (sugar beet; POSTEMERGENCE, Rate 10 g/ha) | Plant response rating, Sugar beet (sugar beet; POSTEMERGENCE, Rate 50 g/ha) | Plant response rating, Sugar beet (sugar beet; PREEMERGENCE, Rate 50 g/ha) | Plant response rating, Morningglory (morningglory; POSTEMERGENCE, Rate 50 g/ha) | Plant response rating, Cotton (cotton; POSTEMERGENCE, Rate 50 g/ha) | Plant response rating, Velvetleaf (velvetleaf; POSTEMERGENCE, Rate 50 g/ha) | Plant response rating, Velvetleaf (velvetleaf; PREEMERGENCE, Rate 50 g/ha)
0: Plant response rating, Cheatgrass (cheatgrass; PREEMERGENCE, Rate 10 g/ha) | Plant response rating, Corn (corn; PREEMERGENCE, Rate 50 g/ha) | Plant response rating, Nutsedge (purple nutsedge; POSTEMERGENCE, Rate 10 g/ha) | Plant response rating, Rice (rice; PREEMERGENCE, Rate 50 g/ha) | Plant response rating, Soybean (soybean; PREEMERGENCE, Rate 50 g/ha) | Plant response rating, Crabgrass (crabgrass; PREEMERGENCE, Rate 10 g/ha) | Plant response rating, Crabgrass (crabgrass; PREEMERGENCE, Rate 50 g/ha) | Plant response rating, Blackgrass (blackgrass; PREEMERGENCE, Rate 10 g/ha) | Plant response rating, Giant foxtail (giant foxtail; PREEMERGENCE, Rate 10 g/ha) | Plant response rating, Giant foxtail (giant foxtail; PREEMERGENCE, Rate 50 g/ha) | Plant response rating, Barley (barley; PREEMERGENCE, Rate 10 g/ha) | Plant response rating, Barley (barley; PREEMERGENCE, Rate 50 g/ha) | Plant response rating, Sorghum (sorghum; PREEMERGENCE, Rate 50 g/ha) | Plant response rating, Wheat (wheat; PREEMERGENCE, Rate 50 g/ha) | Plant response rating, Barnyardgrass (barnyardgrass; PREEMERGENCE, Rate 10 g/ha) | Plant response rating, Barnyardgrass (barnyardgrass; PREEMERGENCE, Rate 50 g/ha) | Plant response rating, Bedstraw (bedstraw; PREEMERGENCE, Rate 10 g/ha) | Plant response rating, Wild buckwheat (wild buckwheat; PREEMERGENCE, Rate 50 g/ha) | Plant response rating, Cotton (cotton; PREEMERGENCE, Rate 10 g/ha) | Plant response rating, Cotton (cotton; PREEMERGENCE, Rate 50 g/ha) | Plant response rating, Cocklebur (cocklebur; PREEMERGENCE, Rate 10 g/ha) | Plant response rating, Cocklebur (cocklebur; PREEMERGENCE, Rate 50 g/ha)
3: Plant response rating, Cheatgrass (cheatgrass; POSTEMERGENCE, Rate 50 g/ha) | Plant response rating, Corn (corn; POSTEMERGENCE, Rate 10 g/ha) | Plant response rating, Soybean (soybean; POSTEMERGENCE, Rate 50 g/ha) | Plant response rating, Blackgrass (blackgrass; POSTEMERGENCE, Rate 50 g/ha) | Plant response rating, Chickweed (chickweed; PREEMERGENCE, Rate 50 g/ha) | Plant response rating, Morningglory (morningglory; PREEMERGENCE, Rate 50 g/ha) | Plant response rating, Sorghum (sorghum; POSTEMERGENCE, Rate 50 g/ha) | Plant response rating, Wheat (wheat; POSTEMERGENCE, Rate 50 g/ha) | Plant response rating, Wild buckwheat (wild buckwheat; POSTEMERGENCE, Rate 10 g/ha)
7: Plant response rating, Morningglory (morningglory; POSTEMERGENCE, Rate 10 g/ha)
